Laboratory results published in PMC5218480 (PLoS ONE, 2017).

System: MV-4-11 cells
Assay: Gene expression microarray analysis (Affymetrix PrimeView) and GSEA
Type: cell-based, human
Set-up: RFU PODN (11730768_x_at) / Fold change /veh PODN (11730768_x_at) / RFU LINC00158 (11744669_a_at) / Fold change /veh LINC00158 (11744669_a_at) / RFU DUSP10 (11751237_a_at) / Fold change /veh DUSP10 (11751237_a_at) / RFU ID3 (11757404_x_at) / Fold change /veh ID3 (11757404_x_at) / RFU PLEKHG5 (11737974_s_at) / Fold change /veh PLEKHG5 (11737974_s_at) / RFU LRRC4B (11730491_at) / Fold change /veh LRRC4B (11730491_at) / RFU GIMAP4 (11747438_a_at) / Fold change /veh GIMAP4 (11747438_a_at) / RFU KRT8 (11758183_x_at) / Fold change /veh KRT8 (11758183_x_at) / RFU CNN1 (11734310_a_at) / Fold change /veh CNN1 (11734310_a_at) / RFU VPS37D (11726825_at) / Fold change /veh VPS37D (11726825_at) / RFU C10orf10 (11716522_x_at) / Fold change /veh C10orf10 (11716522_x_at) / RFU KIR2DL2 /// KIR2DL4 /// KIR2DL5A /// KIR2DL5B /// KIR2DS1 /// KIR2DS2 /// KIR2DS3 /// KIR2DS4 /// KIR3DL3 /// KIR3DL3 /// KIR3DS1 (11738374_at) / Fold change /veh KIR2DL2 /// KIR2DL4 /// KIR2DL5A /// KIR2DL5B /// KIR2DS1 /// KIR2DS2 /// KIR2DS3 /// KIR2DS4 /// KIR3DL3 /// KIR3DL3 /// KIR3DS1 (11738374_at) / RFU C1QL1 (11718748_at) / Fold change /veh C1QL1 (11718748_at) / RFU TMPRSS4 (11747572_a_at) / Fold change /veh TMPRSS4 (11747572_a_at) / RFU HAMP (11756126_x_at) / Fold change /veh HAMP (11756126_x_at) / RFU RNFT2 (11725882_a_at) / Fold change /veh RNFT2 (11725882_a_at) / RFU NR4A2 (11747474_a_at) / Fold change /veh NR4A2 (11747474_a_at) / RFU ABCC12 (11746883_a_at) / Fold change /veh ABCC12 (11746883_a_at) / RFU TMEM136 (11760407_x_at) / Fold change /veh TMEM136 (11760407_x_at) / RFU CLDN22 /// WWC2 (11732394_at) / Fold change /veh CLDN22 /// WWC2 (11732394_at) / RFU HLA-DPB1 (11760878_x_at) / Fold change /veh HLA-DPB1 (11760878_x_at) / RFU SPINT1 (11716480_a_at) / Fold change /veh SPINT1 (11716480_a_at) / RFU GAP43 (11754022_s_at) / Fold change /veh GAP43 (11754022_s_at) / RFU A4GNT (11735810_at) / Fold change /veh A4GNT (11735810_at) / RFU PRB3 (11715151_x_at) / Fold change /veh PRB3 (11715151_x_at) / RFU TUBB4B (11761932_at) / Fold change /veh TUBB4B (11761932_at) / RFU CAPN14 (11732068_a_at) / Fold change /veh CAPN14 (11732068_a_at) / RFU TMCC2 (11721928_a_at) / Fold change /veh TMCC2 (11721928_a_at) / RFU IRGQ (11745062_a_at) / Fold change /veh IRGQ (11745062_a_at) / RFU FAM174B (11720279_a_at) / Fold change /veh FAM174B (11720279_a_at) / RFU TMPRSS4 (11748680_a_at) / Fold change /veh TMPRSS4 (11748680_a_at) / RFU FAM212B (11763350_a_at) / Fold change /veh FAM212B (11763350_a_at) / RFU PLEKHG5 (11743358_a_at) / Fold change /veh PLEKHG5 (11743358_a_at) / RFU ZSCAN30 (11745921_a_at) / Fold change /veh ZSCAN30 (11745921_a_at) / RFU CMKLR1 (11741424_a_at) / Fold change /veh CMKLR1 (11741424_a_at) / RFU LOC101060620 /// MAPK8IP1 (11723275_at) / Fold change /veh LOC101060620 /// MAPK8IP1 (11723275_at) / RFU SPTSSB (11747773_x_at) / Fold change /veh SPTSSB (11747773_x_at) / RFU PRSS12 (11739890_at) / Fold change /veh PRSS12 (11739890_at) / RFU BIN1 (11741810_x_at) / Fold change /veh BIN1 (11741810_x_at) / RFU WNT11 (11732464_a_at) / Fold change /veh WNT11 (11732464_a_at) / RFU C10orf10 (11716521_a_at) / Fold change /veh C10orf10 (11716521_a_at) / RFU C5orf56 (11738089_at) / Fold change /veh C5orf56 (11738089_at) / RFU CYB561 (11721691_x_at) / Fold change /veh CYB561 (11721691_x_at) / RFU ANKRD19P (11752326_a_at) / Fold change /veh ANKRD19P (11752326_a_at) / RFU OR2T12 /// OR2T33 /// OR2T8 (11738714_s_at) / Fold change /veh OR2T12 /// OR2T33 /// OR2T8 (11738714_s_at) / RFU VCAN (11748164_a_at) / Fold change /veh VCAN (11748164_a_at) / RFU JSRP1 (11732532_at) / Fold change /veh JSRP1 (11732532_at) / RFU KRTAP10-11 (11738290_x_at) / Fold change /veh KRTAP10-11 (11738290_x_at) / RFU MYO3A (11730013_a_at) / Fold change /veh MYO3A (11730013_a_at) / RFU EBF3 (11725865_a_at) / Fold change /veh EBF3 (11725865_a_at) / RFU CAMK2N1 (11719241_x_at) / Fold change /veh CAMK2N1 (11719241_x_at) / RFU C5orf56 (11738088_a_at) / Fold change /veh C5orf56 (11738088_a_at) / RFU OLFML3 (11715873_a_at) / Fold change /veh OLFML3 (11715873_a_at) / RFU LOC100653217 /// NTM (11731650_a_at) / Fold change /veh LOC100653217 /// NTM (11731650_a_at) / RFU MAPK11 (11762145_a_at) / Fold change /veh MAPK11 (11762145_a_at) / RFU FIZ1 (11724087_x_at) / Fold change /veh FIZ1 (11724087_x_at) / RFU OASL (11726364_x_at) / Fold change /veh OASL (11726364_x_at) / RFU SOX15 (11748057_x_at) / Fold change /veh SOX15 (11748057_x_at) / RFU CD79A (11719716_a_at) / Fold change /veh CD79A (11719716_a_at) / RFU HIST1H1D (11736915_at) / Fold change /veh HIST1H1D (11736915_at) / RFU CASKIN2 (11723855_a_at) / Fold change /veh CASKIN2 (11723855_a_at) / RFU LOC730098 (11760151_x_at) / Fold change /veh LOC730098 (11760151_x_at) / RFU OR4N2 (11742367_at) / Fold change /veh OR4N2 (11742367_at) / RFU PRRT2 (11749266_a_at) / Fold change /veh PRRT2 (11749266_a_at) / RFU SNX32 (11753110_a_at) / Fold change /veh SNX32 (11753110_a_at) / RFU CDHR5 (11726645_a_at) / Fold change /veh CDHR5 (11726645_a_at) / RFU RCAN1 (11760418_a_at) / Fold change /veh RCAN1 (11760418_a_at) / RFU FAM167A (11723789_a_at) / Fold change /veh FAM167A (11723789_a_at) / RFU FAM26E (11764081_at) / Fold change /veh FAM26E (11764081_at) / RFU ISYNA1 (11749810_s_at) / Fold change /veh ISYNA1 (11749810_s_at) / RFU ACY1 (11761880_at) / Fold change /veh ACY1 (11761880_at) / RFU 11764098_at / Fold change /veh 11764098_at / RFU SAMD14 (11745864_x_at) / Fold change /veh SAMD14 (11745864_x_at) / RFU NPB (11741838_a_at) / Fold change /veh NPB (11741838_a_at) / RFU TMPRSS6 (11731388_a_at) / Fold change /veh TMPRSS6 (11731388_a_at) / RFU KRTAP10-2 (11738614_at) / Fold change /veh KRTAP10-2 (11738614_at) / RFU ARHGAP8 /// PRR5-ARHGAP8 (11727945_x_at) / Fold change /veh ARHGAP8 /// PRR5-ARHGAP8 (11727945_x_at) / RFU KRTAP5-7 /// NADSYN1 (11734609_at) / Fold change /veh KRTAP5-7 /// NADSYN1 (11734609_at) / RFU RASL12 (11751679_a_at) / Fold change /veh RASL12 (11751679_a_at) / RFU CDKN2B (11736163_a_at) / Fold change /veh CDKN2B (11736163_a_at) / RFU PRF1 (11729649_at) / Fold change /veh PRF1 (11729649_at) / RFU, ZNF638 /// ZNF638-IT1 / Fold change vs veh, ZNF638 /// ZNF638-IT1 / RFU, PANK3 / Fold change vs veh, PANK3 / RFU, SH3YL1 / Fold change vs veh, SH3YL1 / RFU, ZEB2 / Fold change vs veh, ZEB2 / RFU, NRIP1 / Fold change vs veh, NRIP1 / RFU, PTTG1IP / Fold change vs veh, PTTG1IP / RFU, CAPN2 / Fold change vs veh, CAPN2 / RFU, MED14 / Fold change vs veh, MED14 / RFU, SNORA58 / Fold change vs veh, SNORA58 / RFU, C1orf63 / Fold change vs veh, C1orf63 / RFU, LRRFIP1 / Fold change vs veh, LRRFIP1 / RFU, NDUFAF7 / Fold change vs veh, NDUFAF7 / RFU, SLC12A2 / Fold change vs veh, SLC12A2 / RFU, IBTK / Fold change vs veh, IBTK / RFU, ESF1 / Fold change vs veh, ESF1 / Fold change vs veh, TMEM50B / RFU, TAOK1 / Fold change vs veh, TAOK1 / RFU, ACBD3 / Fold change vs veh, ACBD3 / RFU, TMA16 / Fold change vs veh, TMA16 / RFU, RWDD3 / Fold change vs veh, RWDD3 / RFU, BCAT1 / Fold change vs veh, BCAT1 / RFU, EDEM3 / Fold change vs veh, EDEM3 / RFU, TMEM33 / Fold change vs veh, TMEM33 / RFU, WDR75 / Fold change vs veh, WDR75 / RFU, AHCTF1 / Fold change vs veh, AHCTF1 / RFU, TFRC / Fold change vs veh, TFRC / RFU, ZDHHC17 / Fold change vs veh, ZDHHC17 / RFU, NOM1 / Fold change vs veh, NOM1 / RFU, ARL8B / Fold change vs veh, ARL8B / RFU, ZBTB11 / Fold change vs veh, ZBTB11 / RFU, TAMM41 / Fold change vs veh, TAMM41 / RFU, KIAA1704 /// LOC100996395 / Fold change vs veh, KIAA1704 /// LOC100996395 / RFU, ING1 / Fold change vs veh, ING1 / RFU, TRMT61B / Fold change vs veh, TRMT61B / RFU, FUBP3 / Fold change vs veh, FUBP3 / RFU, TP53 / Fold change vs veh, TP53 / RFU, TNKS2 / Fold change vs veh, TNKS2 / RFU, ZFP14 / Fold change vs veh, ZFP14 / RFU, ACTR2 / Fold change vs veh, ACTR2 / RFU, PPP3R1 / Fold change vs veh, PPP3R1 / RFU, PIK3R1 / Fold change vs veh, PIK3R1 / RFU, HNRNPA1 / Fold change vs veh, HNRNPA1 / RFU, RNF170 / Fold change vs veh, RNF170 / RFU, ZNF28 / Fold change vs veh, ZNF28 / RFU, RNGTT / Fold change vs veh, RNGTT / RFU, OGT / Fold change vs veh, OGT / RFU, BRD1 / Fold change vs veh, BRD1 / RFU, MARS / Fold change vs veh, MARS / RFU, ZNF655 / Fold change vs veh, ZNF655 / RFU, FAHD1 / Fold change vs veh, FAHD1 / RFU, BDP1 / Fold change vs veh, BDP1 / RFU, LRRCC1 / Fold change vs veh, LRRCC1 / RFU, ARID1A / Fold change vs veh, ARID1A / RFU, ZNF146 / Fold change vs veh, ZNF146 / RFU, ZNF330 / Fold change vs veh, ZNF330 / RFU, GPN3 / Fold change vs veh, GPN3 / RFU, C9orf123 / Fold change vs veh, C9orf123 / RFU, N4BP2L2 / Fold change vs veh, N4BP2L2 / RFU, ARFIP1 / Fold change vs veh, ARFIP1 / RFU, FAM179B / Fold change vs veh, FAM179B / RFU, BCL10 / Fold change vs veh, BCL10 / RFU, UHRF1BP1L / Fold change vs veh, UHRF1BP1L / RFU, BET1 / Fold change vs veh, BET1 / RFU, CNOT2 / Fold change vs veh, CNOT2 / RFU, ZNF268 / Fold change vs veh, ZNF268 / Fold change vs veh, ZNF507 / RFU, DGCR2 / Fold change vs veh, DGCR2 / RFU, WDSUB1 / Fold change vs veh, WDSUB1 / Fold change vs veh, HSP90B1 /// MIR3652 / RFU, ADSS / Fold change vs veh, ADSS / RFU, GK / Fold change vs veh, GK / RFU, ZNF148 / Fold change vs veh, ZNF148 / RFU, TAF9 / Fold change vs veh, TAF9 / RFU, SLC1A5 / Fold change vs veh, SLC1A5 / RFU, SLMO2 / Fold change vs veh, SLMO2 / RFU, ABCC4 / Fold change vs veh, ABCC4 / RFU, LOC101060439 /// RAP1B / Fold change vs veh, LOC101060439 /// RAP1B / RFU, RFX7 / Fold change vs veh, RFX7 / RFU, GTPBP10 / Fold change vs veh, GTPBP10 / RFU, CNEP1R1 / Fold change vs veh, CNEP1R1 / RFU, BIVM-ERCC5 /// ERCC5 / Fold change vs veh, BIVM-ERCC5 /// ERCC5 / RFU, ILF3 / Fold change vs veh, ILF3 / RFU 11762660_at / Fold change /veh 11762660_at / RFU VCAN (11757783_s_at) / Fold change /veh VCAN (11757783_s_at) / RFU DDX43 (11728927_at) / Fold change /veh DDX43 (11728927_at) / RFU KRT8 (11758188_x_at) / Fold change /veh KRT8 (11758188_x_at) / RFU NKD1 (11759106_at) / Fold change /veh NKD1 (11759106_at) / RFU SRD5A1 (11742802_a_at) / Fold change /veh SRD5A1 (11742802_a_at) / RFU TPSAB1 /// TPSB2 (11721975_s_at) / Fold change /veh TPSAB1 /// TPSB2 (11721975_s_at) / RFU GSTM3 (11746129_a_at) / Fold change /veh GSTM3 (11746129_a_at) / RFU IL23R (11737362_x_at) / Fold change /veh IL23R (11737362_x_at) / RFU TMEM51 (11727254_a_at) / Fold change /veh TMEM51 (11727254_a_at) / RFU PIWIL2 (11732686_x_at) / Fold change /veh PIWIL2 (11732686_x_at) / RFU ORM1 (11744905_x_at) / Fold change /veh ORM1 (11744905_x_at) / RFU CCDC152 (11743942_at) / Fold change /veh CCDC152 (11743942_at) / RFU ECM1 (11717891_a_at) / Fold change /veh ECM1 (11717891_a_at) / RFU IL23R (11748794_a_at) / Fold change /veh IL23R (11748794_a_at) / RFU TNFAIP8L3 (11732012_x_at) / Fold change /veh TNFAIP8L3 (11732012_x_at) / RFU MBOAT4 (11741988_at) / Fold change /veh MBOAT4 (11741988_at) / RFU 11764193_at / Fold change /veh 11764193_at / RFU TMEM53 (11763286_at) / Fold change /veh TMEM53 (11763286_at) / RFU MAGEB2 (11727129_at) / Fold change /veh MAGEB2 (11727129_at) / RFU TMEM200A (11744735_a_at) / Fold change /veh TMEM200A (11744735_a_at) / RFU CCDC152 (11751479_a_at) / Fold change /veh CCDC152 (11751479_a_at) / RFU FAM211A (11726209_a_at) / Fold change /veh FAM211A (11726209_a_at) / RFU RGS16 (11746705_a_at) / Fold change /veh RGS16 (11746705_a_at) / RFU VCAN (11755009_s_at) / Fold change /veh VCAN (11755009_s_at) / RFU RHOB (11743442_s_at) / Fold change /veh RHOB (11743442_s_at) / RFU RGS16 (11720943_a_at) / Fold change /veh RGS16 (11720943_a_at) / RFU RGS16 (11720944_at) / Fold change /veh RGS16 (11720944_at) / RFU, VPS4B / Fold change vs veh, VPS4B / RFU, CREB1 / Fold change vs veh, CREB1 / RFU, DNAJC13 / Fold change vs veh, DNAJC13 / RFU, GNAQ / Fold change vs veh, GNAQ / RFU, CDK5R1 / Fold change vs veh, CDK5R1 / RFU, ZRANB3 / Fold change vs veh, ZRANB3 / RFU, CUL4A / Fold change vs veh, CUL4A / RFU, CCNY / Fold change vs veh, CCNY / RFU, UFL1 / Fold change vs veh, UFL1 / RFU, COG3 / Fold change vs veh, COG3 / RFU, DIAPH2 / Fold change vs veh, DIAPH2 / RFU, SKA2 / Fold change vs veh, SKA2 / RFU, AFF3 / Fold change vs veh, AFF3 / RFU, LMF1 / Fold change vs veh, LMF1 / RFU, IPO11 / Fold change vs veh, IPO11 / RFU, DFFB / Fold change vs veh, DFFB / RFU, FOXP1 / Fold change vs veh, FOXP1 / RFU, CARD8 / Fold change vs veh, CARD8 / RFU, STRN3 / Fold change vs veh, STRN3 / RFU, ADK / Fold change vs veh, ADK / RFU, RASSF2 / Fold change vs veh, RASSF2 / RFU, WIPF1 / Fold change vs veh, WIPF1 / RFU, LARP1B / Fold change vs veh, LARP1B / RFU, RASA1 / Fold change vs veh, RASA1 / RFU, RB1 / Fold change vs veh, RB1 / RFU, PPFIA1 / Fold change vs veh, PPFIA1 / RFU, MAT2A / Fold change vs veh, MAT2A / RFU, CCT5 / Fold change vs veh, CCT5 / RFU, WDR92 / Fold change vs veh, WDR92 / RFU, CUX1 / Fold change vs veh, CUX1 / RFU, TTC7A / Fold change vs veh, TTC7A / RFU, TMEM135 / Fold change vs veh, TMEM135 / RFU, DEPTOR / Fold change vs veh, DEPTOR / RFU, CPM / Fold change vs veh, CPM / RFU, DNAJB6 / Fold change vs veh, DNAJB6 / RFU, CACNA2D3 / Fold change vs veh, CACNA2D3 / RFU, DTX4 / Fold change vs veh, DTX4 / RFU, TFCP2 / Fold change vs veh, TFCP2 / RFU, GMCL1 /// GMCL1P1 / Fold change vs veh, GMCL1 /// GMCL1P1 / RFU, AEBP2 / Fold change vs veh, AEBP2 / RFU, SNHG1 /// SNORD22 /// SNORD25 /// SNORD26 /// SNORD27 /// SNORD28 /// SNORD29 /// SNORD31 / Fold change vs veh, SNHG1 /// SNORD22 /// SNORD25 /// SNORD26 /// SNORD27 /// SNORD28 /// SNORD29 /// SNORD31 / Fold change (Aza/veh), C12orf56 (ProbeSet 11735607_a_at) / Fold change (ACY-1035/veh), C12orf56 (ProbeSet 11735607_a_at) / Fold change (Aza/veh), FGFR1OP (ProbeSet 11751329_s_at) / Fold change (ACY-1035/veh), FGFR1OP (ProbeSet 11751329_s_at) / Fold change (Aza/veh), VPS36 (ProbeSet 11739960_a_at) / Fold change (ACY-1035/veh), VPS36 (ProbeSet 11739960_a_at) / RFU SYPL1 (11715823_x_at) / Fold change /veh SYPL1 (11715823_x_at) / RFU IGFBP7 (11715501_s_at) / Fold change /veh IGFBP7 (11715501_s_at) / RFU REEP3 (11722064_at) / Fold change /veh REEP3 (11722064_at) / RFU IGLL1 (11728026_x_at) / Fold change /veh IGLL1 (11728026_x_at): dose or concentration left out as unconfirmed
Settings: MV-4-11 cells, 48 hours

Nc1ccc(-c2cccs2)cc1NC(=O)c1ccc2c(c1)cc(C1CC1)n2CCN1CCOCC1 [ACY-1035]
RFU PODN (11730768_x_at): 25.60 RFU
